Experimental data published in patent US7671040B2, “Chemotherapeutic antineoplastic treatment” (Laboratoires Goemar S.A., priority 2003, dated 2010).
Where “and” joins values, the source holds several entries; their conditions need not be identical. Equal values may be shown once. Read-outs that look alike come from different tables or passages of the source.

How the values were obtained:
[1] = test system: cells in peripheral blood; conditions: for Number of cells, peripheral blood, average: average of group; for Number of cells, peripheral blood, individual mice: single mice
Excerpt: The injection was an intraperitoneally injection.
The peripheral blood of the mice of the first and the second groups of mice under experimentation according to a) was used to determine the total number of all cells on day 0 and then on each of the following days until day 10 on several mice selected from each of the first and the second groups.
The number of cells in peripheral blood has been evaluated as hereafter disclosed.

[2] = test system: cells in bone marrow; conditions: for Number of cells, bone marrow, average: average of group; for Number of cells, bone marrow, individual mice: single mice
Method: A first group and a second group comprising each 50 mice of the Balb/c type were tested.
On day 0 and then each day after day 0, during 10 days, the total number of cells per ml in bone marrow was determined on several mice of each of both first and second groups.
The number of cells in bone marrow was evaluated as hereafter disclosed. The mice were killed by cervical dislocation, placed on their back on cutting board and soaked with ethanol. A long traverse cut through the skin in the middle of the abdominal area was followed by reflecting the skin from the hindquarters and the hind legs. The legs were separated from the body at the hip joint and the feet were removed. The legs were placed in a Petri dish obtaining RPMI 1640 medium (Sigma). All muscle tissue from the femurs and tibia was removed and the bones were separated (only femurs were used). The epiphyses were cut off on both ends, the bone end was punctured with a 23 G needle and flushed out with 3 ml of warm (22° C.) RPMI 1640 medium. The large debris and cell clumps were removed by layering the cell suspension over 3 ml of heat-inactivated fetal calf serum (FCS; Hyclone, Logan, Utah, USA) for 10 minutes on ice. The cells collected from the top of FCS were washed once by centrifugation at 300×g for 10 minutes at 4° C. and kept in RMPI 1640 medium containing 5% FCS. Five microliters of the cell suspension was mixed with 95 ul of Turk's solution (a mixture of 3 ml concentrated acetic acid, 3 ml of 1% crystal violet in water, Fernandez-Botran and Vetvicka “Methods in Cellular Immunology”, CRC Press, Boca Raton, 1995), and incubated for 5 minutes at room temperature. One drop of this solution has been dropped into a hemocytometer and the cells were counted under an optical microscope.
The result of the counting is expressed in number of cells per femur×10^6.

In the case of `O=P1(N(CCCl)CCCl)NCCCO1` (stereo not drawn) [cyclophosphamide], the “Number of cells, peripheral blood, average” value ([1]; day 1) is reported as 3.6 per ml × 10^5, the “Number of cells, peripheral blood, average” value ([1]; day 2) is reported as 3.6 per ml × 10^5 and the “Number of cells, peripheral blood, individual mice” value ([1]; day 2) is reported as 6.6 per ml × 10^5 and 6.0 per ml × 10^5 and 6.3 per ml × 10^5. The “Number of cells, peripheral blood, average” value ([1]; day 3) was 4.2 per ml × 10^5, the “Number of cells, peripheral blood, individual mice” value ([1]; day 3) was 3.8 per ml × 10^5 (2×) and 5.1 per ml × 10^5 and the “Number of cells, peripheral blood, average” value ([1]; day 4) was 5.1 per ml × 10^5. The “Number of cells, peripheral blood, average” value ([1]; day 5) was 7.2 per ml × 10^5, the “Number of cells, peripheral blood, individual mice” value ([1]; day 5) was 4.0 per ml × 10^5 and 9.6 per ml × 10^5 and 8.1 per ml × 10^5 and the “Number of cells, peripheral blood, average” value ([1]; day 6) was 6.5 per ml × 10^5. For the same compound, the “Number of cells, peripheral blood, individual mice” value ([1]; day 6) was 7.8 per ml × 10^5 and 5.0 per ml × 10^5 and 6.7 per ml × 10^5, the “Number of cells, peripheral blood, average” value ([1]; day 7) was 6.4 per ml × 10^5 and the “Number of cells, peripheral blood, individual mice” value ([1]; day 7) was 3.8 per ml × 10^5 and 7.3 per ml × 10^5 and 8.1 per ml × 10^5. The “Number of cells, peripheral blood, average” value ([1]; day 8) was 7.2 per ml × 10^5, the “Number of cells, peripheral blood, individual mice” value ([1]; day 8) was 4.1 per ml × 10^5 and 8.2 per ml × 10^5 and 9.3 per ml × 10^5 and the “Number of cells, peripheral blood, average” value ([1]; day 9) was 11.2 per ml × 10^5. The “Number of cells, peripheral blood, individual mice” value ([1]; day 9) was 8.9 per ml × 10^5 and 11.9 per ml × 10^5 and 12.9 per ml × 10^5, the “Number of cells, peripheral blood, average” value ([1]; day 10) was 29.2 per ml × 10^5 and the “Number of cells, peripheral blood, individual mice” value ([1]; day 10) was 23.8 per ml × 10^5 and 27.8 per ml × 10^5 and 35.9 per ml × 10^5. The “Number of cells, bone marrow, average” value ([2]; day 1) was 1.25 per femur × 10^6, the “Number of cells, bone marrow, individual mice” value ([2]; day 1 after i.p. injection) was 1 per femur × 10^6 and 1.2 per femur × 10^6 and 1.4 per femur × 10^6 (2×) and the “Number of cells, bone marrow, average” value ([2]; day 2) was 1.25 per femur × 10^6. The “Number of cells, bone marrow, individual mice” value ([2]; day 2) was 0.8 per femur × 10^6 and 2.0 per femur × 10^6 and 2.4 per femur × 10^6, the “Number of cells, bone marrow, average” value ([2]; day 3) was 3.6 per femur × 10^6 and the “Number of cells, bone marrow, average” value ([2]; day 4) was 2.7 per femur × 10^6. For the same compound, the “Number of cells, bone marrow, average” value ([2]; day 5) was 4.7 per femur × 10^6, the “Number of cells, bone marrow, individual mice” value ([2]; day 5) was 2.1 per femur × 10^6 and 6.0 per femur × 10^6 and 6.1 per femur × 10^6 and the “Number of cells, bone marrow, average” value ([2]; day 6) was 6.4 per femur × 10^6. For the same compound, the “Number of cells, bone marrow, individual mice” value ([2]; day 6) was 6.5 per femur × 10^6 and 5.7 per femur × 10^6 and 7.0 per femur × 10^6, the “Number of cells, bone marrow, average” value ([2]; day 7) was 8.1 per femur × 10^6 and the “Number of cells, bone marrow, individual mice” value ([2]; day 7) was 9.0 per femur × 10^6 and 8.1 per femur × 10^6 and 7.3 per femur × 10^6. For the same compound, the “Number of cells, bone marrow, average” value ([2]; day 8) was 6.3 per femur × 10^6, the “Number of cells, bone marrow, individual mice” value ([2]; day 8) was 6.0 per femur × 10^6 and 6.2 per femur × 10^6 and 6.8 per femur × 10^6 and the “Number of cells, bone marrow, average” value ([2]; day 9) was 8.2 per femur × 10^6. For the same compound, the “Number of cells, bone marrow, individual mice” value ([2]; day 9) was 8.0 per femur × 10^6 and 8.5 per femur × 10^6 and 8.2 per femur × 10^6, the “Number of cells, bone marrow, average” value ([2]; day 10) was 9.4 per femur × 10^6 and the “Number of cells, bone marrow, individual mice” value ([2]; day 10) was 7.2 per femur × 10^6 and 10.8 per femur × 10^6 and 10.3 per femur × 10^6.
